Experimental data published in publication PMC9620421, “The antimicrobial peptide Magainin-2 interacts with BamA impairing folding of E. coli membrane proteins” (Frontiers in Chemistry, 2022).
Where two headings read alike, the source gives them in different places.

Experiments:
BamA [1] = details: BamA identified as target; Gram-negative bacteria; ref Hart et al., 2019; Li et al., 2020; cited from earlier work
Source text: Among the putative Mag-2 interactors, we focused our attention on the Bam complex as the proteomic experiment led to the identification of all the protein components of this complex essential for bacterial surviving. In particular, BamA is the central component of the Bam complex while BamB, -C, -D and -E are four lipoproteins with a secondary role.

[2] = cited from earlier work
Source text: Biophysical studies led to hypothesize three models that can explain the membrane disruption by AMPs: barrel-stave, toroidal pore and carpet mechanisms ([Di Somma et al., 2020]). According to these mechanisms, antimicrobial peptides interact with bacterial outer membranes, perturbing their integrity and causing their disaggregation ([Huang, 2006]). Most of AMPs show pore formation after binding to the membrane surface. X-ray crystallization studies and spectroscopic analyses reported that Alamethicin, a channel-forming peptide, insert into the lipid bilayer to form a barrel-stave pore structur ...

bacterial membrane = details: ref Billah et al., 2022; cited from earlier work
Source text: Peptide binding is favoured by both hydrophobic interactions between non-polar amino acids and the hydrophobic nucleus of the membrane and electrostatic interactions between the positive charges of the peptides and the negative charges of lipids ([Bahar and Ren, 2013]). Although the mechanism of action is not yet fully understood at molecular level, it is known that Magain ...

BamAp5 = target: T1, BamAp5 (Escherichia coli, UniProt P0A940); assay: Intrinsic fluorescence binding titration; parameters: species or system E. coli
T1 construct: 6xHis; made in house; host or cells: E. coli BL21
Method: Fluorescence experiments were performed on a Fluoromax-4 spectrofluorometer from Horiba Scientific, using 1 cm optical path-length quartz cell under controlled temperature conditions (Peltier control system at 20°C). Titrations were carried out in 20 mM Tris-HCl pH 8.4, 0.2% triton. The intrinsic fluorescence intensity of BamAP5 at a concentration of 3.7 × 10^−6 M was monitored at 280 nm (slit 4 nm) and the emission was monitored at 308 nm (slit 4 nm) without and in the presence of increasing concentrations of Mag-2 peptide (from 2 to 18.64 µM). All experiments were performed in duplicate. The change in the fluorescence intensity of the reaction set was fit into “one site-specific binding” equation of GraphPad Prism 5 (GraphPad Software).

OmpF = details: 50 µM Mag-2 for 1h, 2 h and 3h; triplicate LC-MS/MS; t-test p < 0.05; with increasing time of incubation
[3] = tested on: E. coli membrane proteins; assay: Pull-down proteomics, number of putative interactors; format: binding; details: biotinylated Mag-2 on avidin-agarose, biotin elution, LC-MS/MS; absent in control
OmpA [4] = assay: Western blot densitometry of OmpA in E. coli after Mag-2 incubation; format: cell-based; details: 75 µM Mag-2, 1 h
Method: The E. coli cells were grown in the presence and in the absence of 50 µM Mag-2 for 1h, 2h and 3 h. The level of the OmpA protein was identified by Western Blot using a specific antiOmpA antibody. The amount of OmpA was then evaluated by densitometric analysis of the corresponding western blotted band. […] The same experiment was also carried out using a higher concentration of Mag-2 (75 µM) for as fixed time (1 h).

OmpA [5] = assay: LC-MRM/MS quantification of OmpA in E. coli after Mag-2 incubation; format: cell-based
Source text: Cone voltage was set to 35V.

BamA [6] = tested on: BamA
[7] = target: T2, 6XHis-tagged E. coli BamAp5 (β-barrel domain and fifth POTRA domain, residues 344-810) (E. coli, UniProt P0A940 344-810); assay: other fluorescence titration; intrinsic fluorescence of 3.7 x 10^-6 M BamAp5 (excitation 280 nm, emission 308 nm) with Mag-2 from 2 to 18.64 µM; 20 mM Tris-HCl pH 8.4, 0.2% triton, 20°C; one site-specific binding fit; duplicate; details: both partners purified
T2 construct: Monomer by DLS; also called recombinant form of BamA

Molecule: COC(=O)c1c(NC(=O)c2ccc([N+](=O)[O-])o2)sc2c1CCN(C(C)C)C2 [IMB-H4]
- inhibition of the assembly of OMPs (BamA [1]): inhibits the assembly of OMPs in Gram-negative bacteria

Molecule: NC(N)=NC(=O)CC(Nc1nc(N=C(N)N)nc(NC2CCC(NC(=O)Cn3nnc(-c4ccc(F)cc4)n3)CC2)n1)C1CC1 (stereo not drawn) [MRL-494]
- inhibition of the assembly of OMPs (BamA [1]): inhibits the assembly of OMPs in Gram-negative bacteria

Molecule: Alamethicin
- membrane pore formation ([2]; X-ray crystallization and spectroscopic analyses, ref Qian et al., 2008): insert into the lipid bilayer to form a barrel-stave pore structure consisting of eight alamethicin helices

Molecule: Magainin-2 (GIGKFLHSAKKFGKAFVGEIMNS) [Mag-2]
- mechanism of antimicrobial activity (bacterial membrane): toroidal mechanism
- Kd (BamAp5; intrinsic fluorescence quenching, ex 280 nm, em 308 nm, BamAP5 3.7 × 10^−6 M, Mag-2 2 to 18.64 µM, 20 mM Tris-HCl pH 8.4, 0.2% triton, 20°C, duplicate, one site-specific binding fit, read-out: dissociation constant of the complex, Kd): 3500 ± 100 nM
- change of BamAP5 intrinsic fluorescence (BamAp5; λexc 280 nm, BamAp5 3.7 × 10^−6 M, increasing Mag-2, 20°C): fluorescence decreased at increasing concentrations of the peptide
- amount of OmpF by MRM (OmpF): clear decrease
- number of putative protein interactors [3]: 35
- change of OmpA level (OmpA [4]): rapid and drastic reduction of the OmpA level
- amount of OmpA peptide 252-263 (DGSVVVLGYTDR) by MRM peak area (OmpA [5]; 50 µM Mag-2, 1 h, vs control): decrease of the OmpA peptide
- amount of OmpA by MRM (OmpA [5]; 50 µM Mag-2 for 1h, 2 h and 3h, triplicate LC-MS/MS, t-test p < 0.05, with increasing time of incubation): clear decrease
- hydrodynamic radius of the protein in presence of peptide (BamA [6]; DLS, 532.5 nm, peptide concentration ten times that of the protein, protein without peptide 4.7 ± 0.1 nm, at least 10 independent measurements): 4.3 ± 0.1 nm
- aggregation state by DLS (BamA [6]; samples without and with peptide (ten times higher concentration than protein)): only the protein monomer is present in both samples

Molecule: Melittin
- membrane pore formation ([2]; fluorescence studies with phospholipid vesicles, ref Lohner and Blondelle, 2005): formation of pore coupled with the translocation of peptide across the lipid bilayer

B1: Magainin-2 (peptide, UniProt P11006 83-105, looked up)
peptide: GIGKFLHSAKKFGKAFVGEIMNS
notes: Magainin-2 (Mag-2), antimicrobial peptide of the African clawed frog Xenopus laevis; cut product of the magainins precursor; the docking text numbers it to Ser23; also called Mag-2; Maganin-2
- Kd [7]: 3.5 ± 0.1 nM
